Assay results from paper PMC11879280, “Antimicrobial activity of peptoids against Metallo-β-lactamase-producing Klebsiella pneumoniae, Acinetobacter baumannii, Pseudomonas aeruginosa, and other WHO priority pathogens, including Candida auris” (Journal of Applied Microbiology, 2025).
Where two headings read alike, the source gives them in different places. Square brackets hold non-standard residues; d marks the D form. Peptide text beside a SMILES is read from it. Nspe = C[C@H](NCC(=O)O)c1ccccc1; NDecylGly = CCCCCCCCCCNCC(=O)O; Nlys = NCCCCNCC(=O)O

How the values were obtained:
MBL-producing bacteria = experiment: Geometric mean MIC, therapeutic index and selectivity ratio, MBL-producing bacteria; type: cell-based
Description: (§1) Briefly, bacteria were suspended in cation-adjusted Mueller–Hinton broth (CAMHB; Oxoid, UK) for antibiotics, or MHB (Oxoid, UK) for peptidomimetics to obtain 5 × 10^5 colony forming unit (CFU) ml^−1. […] Positive controls contained only microbes, and blanks contained only media. Microbial suspensions (100 µl) were added to wells, plates wrapped, and incubated at 37°C, 120 rpm for 16–20 h. After incubation, suspensions were removed, log10 diluted, and plated on Trypticase Soya Agar with phosphatidylcholine and Tween 80 to determine minimum bactericidal or fungicidal concentration (MBC or MFC). […] Geometric mean MIC of the peptoids were calculated to evaluate the broad overview of antimicrobial activity across the pathogens.
The test was performed as per the manufacturer’s instructions. Briefly, the strips were applied to a lawn culture of bacteria maintained at 1.5 × 10^8 CFU ml^−1 on Mueller–Hinton agar (Oxoid, UK) and incubated for 20 h at 37°C.
(§2) The therapeutic indices (TIs) of the compounds were calculated with the use of following formula: […]

C. auris strains = conditions: for Geometric mean MICCA: two C. auris strains
Description: as §1, §2

[1] = test system: horse red blood cells (RBCs); experiment: Haemolysis assay; type: cell-based
Description: The haemolytic activity of the peptidomimetics was performed to determine mammalian cell safety. This assay used horse red blood cells (RBCs) (Sigma–Aldrich, USA) as described previously (Willcox et al. [2008], Chongsiriwatana et al. [2017], Yasir et al. [2019b]). RBCs were washed three times with PBS at 470 g for 5 min. Peptoids (0.5–250 μg ml^−1) were prepared in PBS and added to washed RBCs, then incubated at 37°C for 4 h. After incubation, cells were centrifuged at 1057 g for 10 min, and the supernatant’s OD at 540 nm was measured for lysis. PBS-only RBCs served as the negative control (no haemolysis), and Milli-Q water-treated RBCs as the positive control (100% lysis). Percent haemolysis was calculated as: (ODT − ODNC)/(ODPC − ODNC) × 100, where ODT, ODNC, and ODPC are the absorbances of the test, negative, and positive controls, respectively. This experiment was performed in triplicate.

A. baumannii 005 = test system: A. baumannii 005
Method in brief: (§3)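 Bacteria were suspended at 5 × 10^5 CFU ml^−1 in CAMHB for antibiotics or MHB for peptidomimetics, then incubated at 37°C, 120 rpm for 16–20 h. Suspensions were log10 diluted and plated on Trypticase Soya Agar with phosphatidylcholine and Tween 80 for MBC.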

A. baumannii 006 = test system: A. baumannii 006
Method in brief: as §3

A. baumannii 007 = test system: A. baumannii 007
Method in brief: as §3

A. baumannii 008 = test system: A. baumannii 008
Method in brief: as §3

E. coli 0010 = test system: E. coli 0010
Method in brief: as §3

E. coli 0011 = test system: E. coli 0011
Method in brief: as §3

E. coli 0015 = test system: E. coli 0015
Method in brief: as §3

E. coli 005 = test system: E. coli 005
Method in brief: as §3

En. cloacae 001 = test system: En. cloacae 001
Method in brief: as §3

En. cloacae 003 = test system: En. cloacae 003
Method in brief: as §3

En. cloacae 005 = test system: En. cloacae 005
Method in brief: as §3

[2] = test system: Enteroc. faecalis NCTC 13 379
Method in brief: as §3

K. pneumoniae JIE4212 = test system: K. pneumoniae JIE4212
Method in brief: as §3

P. aeruginosa 216 = test system: P. aeruginosa 216
Method in brief: as §3

P. aeruginosa 33 = test system: P. aeruginosa 33
Method in brief: as §3

S. aureus 04 = test system: S. aureus 04
Method in brief: as §3

S. aureus 105 = test system: S. aureus 105
Method in brief: as §3

[3] = horse RBCs in PBS, 37°C, 4 h, OD 540 nm, triplicate, best fit curve
[4] = horse RBCs in PBS, 37°C, 4 h, value in brackets
[5] = A. baumannii 005, MHB (melimine/Mel4 with 0.2% BSA, 0.01% acetic acid), mean MIC
[6] = A. baumannii 006, MHB (melimine/Mel4 with 0.2% BSA, 0.01% acetic acid), mean MIC
[7] = A. baumannii 007, MHB (melimine/Mel4 with 0.2% BSA, 0.01% acetic acid), mean MIC
[8] = A. baumannii 008, MHB (melimine/Mel4 with 0.2% BSA, 0.01% acetic acid), mean MIC
[9] = E. coli 0010, MHB (melimine/Mel4 with 0.2% BSA, 0.01% acetic acid), mean MIC
[10] = E. coli 0011, MHB (melimine/Mel4 with 0.2% BSA, 0.01% acetic acid), mean MIC
[11] = E. coli 0015, MHB (melimine/Mel4 with 0.2% BSA, 0.01% acetic acid), mean MIC
[12] = E. coli 005, MHB (melimine/Mel4 with 0.2% BSA, 0.01% acetic acid), mean MIC
[13] = En. cloacae 001, MHB (melimine/Mel4 with 0.2% BSA, 0.01% acetic acid), mean MIC
[14] = En. cloacae 003, MHB (melimine/Mel4 with 0.2% BSA, 0.01% acetic acid), mean MIC
[15] = En. cloacae 005, MHB (melimine/Mel4 with 0.2% BSA, 0.01% acetic acid), mean MIC
[16] = Enteroc. faecalis NCTC 13 379, MHB (melimine/Mel4 with 0.2% BSA, 0.01% acetic acid), mean MIC
[17] = K. pneumoniae JIE4212, MHB (melimine/Mel4 with 0.2% BSA, 0.01% acetic acid), mean MIC
[18] = P. aeruginosa 216, MHB (melimine/Mel4 with 0.2% BSA, 0.01% acetic acid), mean MIC
[19] = P. aeruginosa 33, MHB (melimine/Mel4 with 0.2% BSA, 0.01% acetic acid), mean MIC
[20] = S. aureus 004, MHB (melimine/Mel4 with 0.2% BSA, 0.01% acetic acid), mean MIC
[21] = S. aureus 105, MHB (melimine/Mel4 with 0.2% BSA, 0.01% acetic acid), mean MIC

Compound: C[C@@H](c1ccccc1)N(CC(N)=O)C(=O)CN(CCCCN)C(=O)CN(C(=O)CN(C(=O)CN(CCCCN)C(=O)CN(C(=O)CN(C(=O)CN(CCCCN)C(=O)CN(C(=O)CN(C(=O)CNCCCCN)[C@@H](C)c1ccccc1)[C@@H](C)c1ccccc1)[C@@H](C)c1ccccc1)[C@@H](C)c1ccccc1)[C@@H](C)c1ccccc1)[C@@H](C)c1ccccc1 [TM6] (H-[Nlys][Nspe][Nspe][Nlys][Nspe][Nspe][Nlys][Nspe][Nspe][Nlys][Nspe]-NH2)
- Geometric mean MICMBL (MBL-producing bacteria): 18.6 µg/mL
- Geometric mean MICCA (C. auris strains): 7.9 µg/mL
- HD10 (10% haemolytic dose) [1, 3]: 43.2 µg/mL
- HD50 (50% haemolytic dose) [1, 3]: > 256 µg/mL
- HD10 (10% haemolytic dose) [1, 4]: 26.1 µmol/L
- HD50 (50% haemolytic dose) [1, 4]: > 154.4 µmol/L
- MIC of peptidomimetics (A. baumannii 005; [5]): 7.8 µg/mL
- MIC of peptidomimetics (A. baumannii 005; A. baumannii 005, value in brackets): 4.7 µM
- MIC of peptidomimetics (A. baumannii 006; [6]): 7.8 µg/mL
- MIC of peptidomimetics (A. baumannii 006; A. baumannii 006, value in brackets): 4.7 µM
- MIC of peptidomimetics (A. baumannii 007; [7]): 7.8 µg/mL
- MIC of peptidomimetics (A. baumannii 007; A. baumannii 007, value in brackets): 4.7 µM
- MIC of peptidomimetics (A. baumannii 008; [8]): 15.6 µg/mL
- MIC of peptidomimetics (A. baumannii 008; A. baumannii 008, value in brackets): 9.4 µM
- MIC of peptidomimetics (E. coli 0010; [9]): 62.5 µg/mL
- MIC of peptidomimetics (E. coli 0010; E. coli 0010, value in brackets): 37.7 µM
- MIC of peptidomimetics (E. coli 0011; [10]): 15.6 µg/mL
- MIC of peptidomimetics (E. coli 0011; E. coli 0011, value in brackets): 9.4 µM
- MIC of peptidomimetics (E. coli 0015; [11]): 62.5 µg/mL
- MIC of peptidomimetics (E. coli 0015; E. coli 0015, value in brackets): 37.7 µM
- MIC of peptidomimetics (E. coli 005; [12]): 62.5 µg/mL
- MIC of peptidomimetics (E. coli 005; E. coli 005, value in brackets): 37.7 µM
- MIC of peptidomimetics (En. cloacae 001; [13]): 15.6 µg/mL
- MIC of peptidomimetics (En. cloacae 001; En. cloacae 001, value in brackets): 9.4 µM
- MIC of peptidomimetics (En. cloacae 003; [14]): 15.6 µg/mL
- MIC of peptidomimetics (En. cloacae 003; En. cloacae 003, value in brackets): 9.4 µM
- MIC of peptidomimetics (En. cloacae 005; [15]): 15.6 µg/mL
- MIC of peptidomimetics (En. cloacae 005; En. cloacae 005, value in brackets): 9.4 µM
- MIC of peptidomimetics [2, 16]: 31.25 µg/mL
- MIC of peptidomimetics ([2]; Enteroc. faecalis NCTC 13 379, value in brackets): 18.8 µM
- MIC of peptidomimetics (K. pneumoniae JIE4212; [17]): 15.6 µg/mL
- MIC of peptidomimetics (K. pneumoniae JIE4212; K. pneumoniae JIE4212, value in brackets): 9.4 µM
- MIC of peptidomimetics (P. aeruginosa 216; [18]): 15.6 µg/mL
- MIC of peptidomimetics (P. aeruginosa 216; P. aeruginosa 216, value in brackets): 9.4 µM
- MIC of peptidomimetics (P. aeruginosa 33; [19]): 31.3 µg/mL
- MIC of peptidomimetics (P. aeruginosa 33; P. aeruginosa 33, value in brackets): 18.8 µM
- MIC of peptidomimetics (S. aureus 04; [20]): 7.8 µg/mL
- MIC of peptidomimetics (S. aureus 04; S. aureus 004, value in brackets): 4.7 µM
- MIC of peptidomimetics (S. aureus 105; [21]): 7.8 µg/mL
- MIC of peptidomimetics (S. aureus 105; S. aureus 105, value in brackets): 4.7 µM

Compound: CCCCCCCCCCNCC(=O)N(CCCCN)CC(=O)N(CC(=O)N(CC(=O)N(CCCCN)CC(=O)N(CC(=O)N(CC(N)=O)[C@@H](C)c1ccccc1)[C@@H](C)c1ccccc1)[C@@H](C)c1ccccc1)[C@@H](C)c1ccccc1 [TM8] (H-[NDecylGly][Nlys][Nspe][Nspe][Nlys][Nspe][Nspe]-NH2)
- Geometric mean MICMBL (MBL-producing bacteria): 7.8 µg/mL
- MIC against both C. auris strains (C. auris strains; strains): < 10 µg/mL
- Geometric mean MICCA (C. auris strains): 5.5 µg/mL
- HD10 (10% haemolytic dose) [1]: 7.2 µmol/L
- HD50 (50% haemolytic dose) [1]: 24.4 µmol/L
- HD10 (10% haemolytic dose) ([1]; red cells of horse, 4 h): 8 µg/mL
- HD50 (50% haemolytic dose) ([1]; red cells of horse, 4 h): 27.2 µg/mL
- MIC of peptidomimetics (A. baumannii 005; 005): 7.0 µM
- MIC of peptidomimetics (A. baumannii 005; [5]): 7.8 µg/mL
- MIC of peptidomimetics (A. baumannii 006; 006): 3.5 µM
- MIC of peptidomimetics (A. baumannii 006; [6]): 3.9 µg/mL
- MIC of peptidomimetics (A. baumannii 007; 007): 3.5 µM
- MIC of peptidomimetics (A. baumannii 007; [7]): 3.9 µg/mL
- MIC of peptidomimetics (A. baumannii 008; 008): 7.0 µM
- MIC of peptidomimetics (A. baumannii 008; [8]): 7.8 µg/mL
- MIC of peptidomimetics (E. coli 0010; 0010): 14.0 µM
- MIC of peptidomimetics (E. coli 0010; [9]): 15.6 µg/mL
- MIC of peptidomimetics (E. coli 0011; 0011): 14.0 µM
- MIC of peptidomimetics (E. coli 0011; [10]): 15.6 µg/mL
- MIC of peptidomimetics (E. coli 0015; 0015): 7.0 µM
- MIC of peptidomimetics (E. coli 0015; [11]): 7.8 µg/mL
- MIC of peptidomimetics (E. coli 005; 005): 7.0 µM
- MIC of peptidomimetics (E. coli 005; [12]): 7.8 µg/mL
- MIC of peptidomimetics (En. cloacae 001): 7.0 µM
- MIC of peptidomimetics (En. cloacae 001; [13]): 7.8 µg/mL
- MIC of peptidomimetics (En. cloacae 003): 7.0 µM
- MIC of peptidomimetics (En. cloacae 003; [14]): 7.8 µg/mL
- MIC of peptidomimetics (En. cloacae 005): 14.0 µM
- MIC of peptidomimetics (En. cloacae 005; [15]): 15.6 µg/mL
- MIC of peptidomimetics [2, 16]: 7.8 µg/mL
- MIC of peptidomimetics ([2]; NCTC 13): 7.0 µM
- MIC of peptidomimetics (K. pneumoniae JIE4212; JIE4212): 7.0 µM
- MIC of peptidomimetics (K. pneumoniae JIE4212; [17]): 7.8 µg/mL
- MIC of peptidomimetics (P. aeruginosa 216; 216): 7.0 µM
- MIC of peptidomimetics (P. aeruginosa 216; [18]): 7.8 µg/mL
- MIC of peptidomimetics (P. aeruginosa 33; 33): 3.5 µM
- MIC of peptidomimetics (P. aeruginosa 33; [19]): 3.9 µg/mL
- MIC of peptidomimetics (S. aureus 04; 04): 3.5 µM
- MIC of peptidomimetics (S. aureus 04; [20]): 3.9 µg/mL
- MIC of peptidomimetics (S. aureus 105; 105): 3.5 µM
- MIC of peptidomimetics (S. aureus 105; [21]): 3.9 µg/mL
